From US11345679B2, “Quaternary lactam compound and pharmaceutical use thereof” (SHANGHAI MEIYUE BIOTECH DEVELOPMENT CO., LTD., priority 2018, dated 2022)
Where two headings read alike, the source gives them in different places.

Tests used:
[1] = target: human FXIa protein (hFXIa) (Homo sapiens (Human), UniProt P03951); test: Enzyme activity assay in vitro (FXIa, S-2366 substrate); format: biochemical; conditions: absorbance at OD405nm
Procedure: II. Enzyme Activity Assay In Vitro
Method: the test compound was dissolved in 10 mM mother liquor with DMSO, and stored at −80° C. until use.

human plasma = test: Determination of activated partial thromboplastin time (APTT); format: biochemical
Procedure: 1. Determination of Activated Partial Thromboplastin Time (APTT)
1. Preparation of human plasma: human venous whole blood was collected and placed in 3.2% sodium citrate anticoagulation tube (human blood: sodium citrate=9:1 (V/V)). The tube was centrifuged at ˜1560 g for 8 min, to obtain human plasma.
2. Preparation of the test sample: the test compound was dissolved in DMSO, and diluted in gradient to obtain 3000, 600, 120, 24, 4.8 μM stock solutions; each stock solution was mixed with the human plasma as prepared under item 1 at a ratio of 1:49 (V/V).
3. Negative control: DMSO solvent without the test compound was diluted in gradient to obtain 3000, 600, 120, 24, 4.8 μM stock solutions; each stock solution was mixed with the human plasma as prepared under item 1 at a ratio of 1:49 (V/V).
4. Test: After mixing the test solution of the above test sample and that of the negative control separately for 3 to 5 minutes, 30 μL of the test solution was added to the machine (MC-2000 coagulometer), and pre-warmed at 37° C. for 2 min; 30 μL of APTT reagent (MDC Hemostasis, Cat: 300025) was added and incubated at 37° C. for 5 min; and then 30 μL CaCl2 was added to initiate the APTT measurement.
According to the measured APTT result, APTT ratio was calculated according to the following formula. APTT ratio=(APTTtest compound/APTTnegative control).
Exponential equation was used to fit the Lg (concentration) to APTT ratio (Origin Pro 8.5.1 SR2), the drug working concentrations at 1.5 times APTT ratio and 2 times APTT ratio were calculated, namely EC150 and EC200.

[2] = drug working concentration at 1.5 times APTT ratio, read-out: EC150
[3] = drug working concentration at 2 times APTT ratio, read-out: EC200

Chain of human FXIa protein (hFXIa) (P03951 388-625): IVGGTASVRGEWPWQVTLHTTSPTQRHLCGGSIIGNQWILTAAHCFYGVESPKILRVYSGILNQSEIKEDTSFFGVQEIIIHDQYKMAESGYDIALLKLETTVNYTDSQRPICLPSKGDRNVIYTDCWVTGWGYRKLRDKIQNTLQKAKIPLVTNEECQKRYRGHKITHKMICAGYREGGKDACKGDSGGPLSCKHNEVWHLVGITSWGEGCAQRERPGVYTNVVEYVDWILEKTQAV
Chain of human FXIa protein (hFXIa) (P03951 19-387 partner): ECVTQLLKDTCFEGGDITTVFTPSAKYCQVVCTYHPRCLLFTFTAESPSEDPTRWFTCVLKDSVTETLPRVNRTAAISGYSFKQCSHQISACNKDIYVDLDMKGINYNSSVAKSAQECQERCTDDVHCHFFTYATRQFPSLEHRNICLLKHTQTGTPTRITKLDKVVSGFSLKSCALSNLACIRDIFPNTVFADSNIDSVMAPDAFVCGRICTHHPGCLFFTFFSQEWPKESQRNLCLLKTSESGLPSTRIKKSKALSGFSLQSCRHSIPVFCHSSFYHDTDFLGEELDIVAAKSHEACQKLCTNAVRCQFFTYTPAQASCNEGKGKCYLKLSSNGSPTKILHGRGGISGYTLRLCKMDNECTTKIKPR

SMILES | IC50 [1] | concentration giving fixed-fold APTT prolongation (human plasma; [2]) | concentration giving fixed-fold APTT prolongation (human plasma; [3])
CN(C)C(=O)[C@@H]1[C@@H](Cc2ccnc(N)c2)C(=O)N1C(=O)N1CCC[C@H](c2ccccc2)C1 [Example 24] | 3.6 nM |  | 
NC(=O)[C@@H]1[C@@H](Cc2ccnc(N)c2)C(=O)N1C(=O)N1CCC[C@@H](c2ccccc2)C1 [Example 31] | 2.8 nM |  | 
CS(=O)(=O)NC(=O)[C@@H]1[C@@H](Cc2ccnc(N)c2)C(=O)N1C(=O)N1CCC[C@H](c2ccccc2)C1 [Example 25] | 3.2 nM |  | 
CNC(=O)[C@@H]1[C@@H](Cc2ccnc(N)c2)C(=O)N1C(=O)N1CCC[C@H](c2ccccc2)C1 [Example 23] | 1.5 nM | 1.48 µM | 4.4 µM
CNC(=O)[C@@H]1[C@@H](Cc2ccnc(N)c2)C(=O)N1C(=O)N1CCC[C@@H](c2ccccc2)C1 [Example 41] | 4.1 nM | 2.18 µM | 8.22 µM
CN(C)C(=O)[C@@H]1[C@@H](Cc2ccnc(N)c2)C(=O)N1C(=O)N1CCCCC1c1ccccc1 (stereo partly shown) [Example 20] | 10.8 nM |  | 
CS(=O)(=O)NC(=O)[C@@H]1[C@@H](Cc2ccnc(N)c2)C(=O)N1C(=O)N1CCCCC1c1ccccc1 (stereo partly shown) [Example 18] | 10.7 nM |  | 
N#Cc1ccc2c(c1)CCN2C(=O)N1C(=O)[C@H](Cc2ccnc(N)c2)[C@H]1C(=O)O [Example 13] | 23.2 nM |  | 
CNC(=O)[C@@H]1[C@@H](Cc2ccnc(N)c2)C(=O)N1C(=O)N1CCCCC1c1ccccc1 (stereo partly shown) [Example 19] | 5.99 nM |  | 
Cn1cc(C2CCCN(C(=O)N3C(=O)[C@H](Cc4ccnc(N)c4)[C@H]3C(=O)O)C2)cn1 (stereo partly shown) [Example 28] | 23.1 nM |  | 
CNC(=O)[C@@H]1[C@@H](Cc2ccnc(N)c2)C(=O)N1C(=O)N1CCCC(c2ccc(F)cc2)C1 (stereo partly shown) [Example 30] | 2.4 nM |  | 
CNC(=O)[C@@H]1[C@@H](Cc2ccnc(N)c2)C(=O)N1C(=O)N1CCCC(c2ccccc2)C1 (stereo partly shown) [Example 51] | 3.3 nM |  | 
CNC(=O)[C@@H]1[C@@H](Cc2ccnc(N)c2)C(=O)N1C(=O)N1CCCC(C2CCCCCCC2)C1 (stereo partly shown) [Example 45] | 5.3 nM |  | 
CNC(=O)[C@@H]1[C@@H](Cc2ccnc(N)c2)C(=O)N1C(=O)N1CCCC(c2ccc3c(c2)OC(F)(F)O3)C1 (stereo partly shown) [Example 33] | 3.5 nM |  | 
NC(=O)[C@@H]1[C@@H](Cc2ccnc(N)c2)C(=O)N1C(=O)N1CCCC(c2ccc3c(c2)OC(F)(F)O3)C1 (stereo partly shown) [Example 32] | 4.1 nM |  | 
Nc1cc(C[C@H]2C(=O)N(C(=O)N3CCCC(c4cccc5ccccc45)C3)[C@@H]2C(=O)O)ccn1 (stereo partly shown) [Example 46] | 7.7 nM |  | 
Nc1cc(C[C@H]2C(=O)N(C(=O)N3CCCC(c4ccc5c(c4)OC(F)(F)O5)C3)[C@@H]2C(=O)O)ccn1 (stereo partly shown) [Example 26] | 11.1 nM |  | 
COC(=O)Nc1cccc(C2CCCN(C(=O)N3C(=O)[C@H](Cc4ccnc(N)c4)[C@H]3C(=O)O)C2)c1 (stereo partly shown) [Example 42] | 9.1 nM |  | 
Nc1cc(C[C@H]2C(=O)N(C(=O)N3CCC[C@H](c4ccccc4)C3)[C@@H]2C(=O)O)ccn1 [Example 16] | 1.89 nM | 1.41 µM | 6.99 µM
